# Assay results from patent US10399932B2, “Inhibitors of indoleamine-2,3-dioxygenase for the treatment of cancer” (BRISTOL-MYERS SQUIBB COMPANY, priority 2015, dated 2019).
# Biological target: human IDO1 (Homo sapiens, UniProt P14902)
# Experiment: Assessment of human IDO-1 inhibitory activity in Hela cells (Interferon-gamma activated, Ehrlich reagent, absorbance at 490 nm)
# Assay type: cell-based
# Parameters: endogenous in cells; host or cells: HeLa cells stimulated with interferon-gamma
# Conditions: 18 hours
# Outline: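 HeLa cells were preincubated with compound for 1 h at 37 °C, then stimulated with human IFN-γ (10 ng/ml final) or murine IFN-γ (5 ng/ml final) for 18 h. Kynurenine was read after TCA (3% final, 50 °C for 30 min) and Ehrlich reagent at A490. For IC50, unstimulated wells were set as 100% inhibition and IFN-γ alone as 0%.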
# Chain of human IDO1 (P14902 whole entry): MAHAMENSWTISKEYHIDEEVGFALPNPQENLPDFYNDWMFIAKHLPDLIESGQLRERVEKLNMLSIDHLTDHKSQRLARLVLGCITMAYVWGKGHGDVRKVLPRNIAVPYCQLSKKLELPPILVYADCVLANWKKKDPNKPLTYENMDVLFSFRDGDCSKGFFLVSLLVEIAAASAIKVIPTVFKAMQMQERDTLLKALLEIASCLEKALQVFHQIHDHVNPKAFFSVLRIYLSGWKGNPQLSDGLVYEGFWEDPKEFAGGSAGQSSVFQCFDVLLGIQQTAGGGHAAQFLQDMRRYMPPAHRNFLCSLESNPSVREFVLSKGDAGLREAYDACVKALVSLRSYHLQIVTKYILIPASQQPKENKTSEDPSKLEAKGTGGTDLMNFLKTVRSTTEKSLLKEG
row,IC50 [µM],Compound
1,> 0.05,"COCC(CC(=O)O)c1ccc(N2CCOC(C)(C)C2)c(Nc2ccc(C#N)cc2)c1 (single isomer, unassigned) [Example 1317]"
2,< 0.005,"COCC(CC(=O)O)c1ccc(N2CCC(c3ccccc3)CC2)c(Nc2ccc(C#N)cc2)c1 (single isomer, unassigned) [Example 1350 E2, 3-(3-((4-Cyanophenyl)amino)-4-(4-phenylpiperidin-1-yl)phenyl)-4-methoxybutanoic acid]"
3,< 0.005,"CCN(c1cc(F)c([C@@H](COC)CC(=O)O)cc1Nc1ccc(Cl)cc1)C1CCOCC1 (stereo in doubt) [Example 851, 3-(5-((4-chlorophenyl)amino)-4-(ethyl(tetrahydro-2H-pyran-4-yl)amino)-2-fluorophenyl)-4-methoxybutanoic acid]"
4,< 0.005,"CCN(c1ccc([C@@H](COC)CC(=O)O)cc1Nc1cccc(OC(F)(F)C(F)F)c1)C1CCOCC1 [Example 361, (S)-3-(4-(ethyl(tetrahydro-2H-pyran-4-yl)amino)-3-((3-(1,1,2,2-tetrafluoroethoxy)phenyl)amino)phenyl)-4-methoxybutanoic acid]"
5,< 0.05,CCN(c1ccc([C@@H](COC)CC(=O)O)cc1Nc1ccc(C#N)c(OC)c1)C1CCOCC1 [Example 380]
6,< 0.005,"CCN(c1ccc([C@H](COC)CC(=O)O)cc1Nc1cccc(OC(F)(F)C(F)F)c1)C1CCOCC1 [Example 398, (R)-3-(4-(ethyl(tetrahydro-2H-pyran-4-yl)amino)-3-((3-(1,1,2,2-tetrafluoroethoxy)phenyl)amino)phenyl)-4-methoxybutanoic acid]"
7,> 0.05,"CCN(c1ccc([C@@H](COC)CC(=O)O)cc1NC(=O)Nc1ccc(C#N)cc1)C1CCOCC1 [Example 422 E1, (S)-3-(3-(3-(4-Cyanophenyl)ureido)-4-(ethyl(tetrahydro-2H-pyran-4-yl)amino)phenyl)-4-methoxybutanoic acid]"
8,< 0.05,"CCN(c1cc(F)c(C(COC)CC(=O)O)cc1Nc1ccc(Cl)cc1)C1CCOCC1 (stereo not drawn) [Example 845, 3-(5-((4-chlorophenyl)amino)-4-(ethyl(tetrahydro-2H-pyran-4-yl)amino)-2-fluorophenyl)-4-methoxybutanoic acid]"
9,< 0.05,(R)-3-(3-((4-cyano-3-methylphenyl)amino)-4-(ethyl(tetrahydro-2H-pyran-4-yl)amino)phenyl)-4-methoxybutanoic acid [Example 391]
10,> 0.05,"(R)-3-(4-((1,1-dioxidotetrahydro-2H-thiopyran-4-yl)(ethyl)amino)-3-((2-ethoxypyrimidin-5-yl)amino)phenyl)-4-isopropoxybutanoic acid [Example 333]"
11,> 0.05,(R)-3-(4-(ethyl(tetrahydro-2H-pyran-4-yl)amino)-3-((2-(tetrahydro-2H-pyran-4-yl)pyrimidin-5-yl)amino)phenyl)-4-methoxybutanoic acid [Example 403]
12,> 0.05,(S)-3-(4-(ethyl(tetrahydro-2H-pyran-4-yl)amino)-3-((2-(tetrahydro-2H-pyran-4-yl)pyrimidin-5-yl)amino)phenyl)-4-methoxybutanoic acid [Example 366]

# More lines, now with the values behind:
row,Compound,IC50 [µM]
1,"CCOc1ncc(Nc2cc(C(CC(=O)O)C3CC3)ccc2N2C[C@@H](C)O[C@@H](C)C2)cn1 (stereo partly drawn) [Example 250, 3-cyclopropyl-3-(4-((2R,6S)-2,6-dimethylmorpholino)-3-((2-ethoxypyrimidin-5-yl)amino)phenyl) propanoic acid]",> 0.05
2,"COCC(CC(=O)OC)c1ccc(N(CC(F)F)C2CCOCC2)c(Nc2ccc(Cl)cc2)c1 (stereo not drawn) [Example 319, methyl 3-(3-((4-chloro-phenyl)amino)-4-((2,2-difluoroethyl) (tetrahydro-2H-pyran-4-yl)amino)phenyl)-4-methoxy-butanoate]",< 0.005
3,"COCC(CC(=O)OC)c1ccc(N(CC(F)F)C2CCOCC2)c(Nc2ccc(Cl)cc2)c1 (stereo not drawn) [Example 320, methyl 3-(3-((4-chloro-phenyl)amino)-4-((2,2-difluoroethyl) (tetrahydro-2H-pyran-4-yl)amino)phenyl)-4-methoxy-butanoate]",> 0.05
4,"(R)-3-(3-((4-chlorophenyl)amino)-4-((1,1-dioxidotetrahydro-2H-thiopyran-4-yl)(ethyl)amino)phenyl)-4-isopropoxybutanoic acid [Example 330]",< 0.005
5,"(R)-3-(4-((1,1-dioxidotetrahydro-2H-thiopyran-4-yl)(ethyl)amino)-3-((2-methoxypyrimidin-5-yl)amino)phenyl)-4-isopropoxybutanoic acid [Example 332]",> 0.05
6,"(R)-3-(4-((1,1-dioxidotetrahydro-2H-thiopyran-4-yl)(ethyl)amino)-3-((4-fluorophenyl)amino)phenyl)-4-isopropoxybutanoic acid [Example 331]",< 0.05
7,"(S)-3-(3-((4-chlorophenyl)amino)-4-((1,1-dioxidotetrahydro-2H-thiopyran-4-yl)(ethyl)amino)phenyl)-4-isopropoxybutanoic acid [Example 325]",< 0.005
8,"(S)-3-(4-((1,1-dioxidotetrahydro-2H-thiopyran-4-yl)(ethyl)amino)-3-((2-ethoxypyrimidin-5-yl)amino)phenyl)-4-isopropoxybutanoic acid [Example 328]",> 0.05
9,"(S)-3-(4-((1,1-dioxidotetrahydro-2H-thiopyran-4-yl)(ethyl)amino)-3-((2-methoxypyrimidin-5-yl)amino)phenyl)-4-isopropoxybutanoic acid [Example 327]",> 0.05
